In one assay the target is T1, Androgen receptor L702H (Homo sapiens, UniProt P10275, L702H).
T1 construct: expressed in transfected cells; host or cells: A549, transduced, puromycin selected
T1 sequence (P10275 1-920 L702H): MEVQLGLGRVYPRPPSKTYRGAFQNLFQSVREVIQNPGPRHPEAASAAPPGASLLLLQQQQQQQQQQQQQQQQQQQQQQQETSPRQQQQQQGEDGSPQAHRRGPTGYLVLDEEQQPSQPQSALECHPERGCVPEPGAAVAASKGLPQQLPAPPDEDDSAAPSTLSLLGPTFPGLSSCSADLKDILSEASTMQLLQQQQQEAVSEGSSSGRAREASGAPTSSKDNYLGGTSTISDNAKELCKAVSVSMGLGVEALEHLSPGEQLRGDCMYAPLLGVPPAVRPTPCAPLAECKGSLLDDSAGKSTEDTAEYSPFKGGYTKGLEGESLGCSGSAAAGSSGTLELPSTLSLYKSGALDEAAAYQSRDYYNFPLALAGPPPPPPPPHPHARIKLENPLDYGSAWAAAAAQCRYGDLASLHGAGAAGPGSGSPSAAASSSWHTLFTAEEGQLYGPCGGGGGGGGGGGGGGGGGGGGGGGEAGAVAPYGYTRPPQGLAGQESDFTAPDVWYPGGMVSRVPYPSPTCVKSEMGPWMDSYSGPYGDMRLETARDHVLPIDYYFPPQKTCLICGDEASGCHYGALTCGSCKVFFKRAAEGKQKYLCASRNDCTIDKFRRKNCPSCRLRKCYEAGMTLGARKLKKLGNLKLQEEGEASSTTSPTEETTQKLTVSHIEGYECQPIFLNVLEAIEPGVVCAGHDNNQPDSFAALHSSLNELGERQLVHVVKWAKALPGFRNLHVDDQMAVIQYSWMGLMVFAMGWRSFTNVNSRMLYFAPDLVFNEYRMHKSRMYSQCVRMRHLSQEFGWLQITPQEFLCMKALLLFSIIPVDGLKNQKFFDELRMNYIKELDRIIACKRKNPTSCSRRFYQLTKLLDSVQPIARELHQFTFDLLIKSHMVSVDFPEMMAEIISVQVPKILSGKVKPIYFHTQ
Nature of the assay: Degradation of overexpressed Androgen Receptor in A549 cells (HiBiT), L702H. The format is cell-based. As to conditions: A549 cells overexpressing AR L702H, cycloheximide, 24 hours. The procedure: (§1) A549 cells were transduced to express wild type androgen receptor and Androgen receptor containing the following mutations (L702H, H875Y W742C W742L F877L, T878A and T878A/H875Y) with HiBiT tags. Transduced cells following puromycin selection were maintained in a humidified incubator (at 37° C. and 5% CO2 in the DMEM medium supplemented with 1% (v/v) Pen/Strep, 1% (v/v) Glutamax and 10% (v/v) FBS. A549 cells expressing each AR construct were detached from plate and counted. Cell suspensions at density 0.2 million per mL were prepared. Cell suspension was supplemented with 100 μg/mL of cycloheximide to block protein synthesis. Cells were preincubated with cycloheximide for 1 hr before seeding. Cells were seeded onto 384-well plate at density of 5,000 in 25 μL per well. A two fold serial dilution of test compounds, starting from 1 μM (row A) in 2-fold serial dilution series across the column using Tecan D300e dispenser. […]
(§2) Nano-Glo HiBiT Lytic reagent was prepared by adding LgBiT protein and Nano-Glo® substrate to lytic buffer pre-equilibrated at room temperature following manufacturer protocol (https://www.promega.co.uk/resources/protocols/technical-manuals/101/nanoglo-luciferase-assay-system-protocol). […] The plates were then centrifuged (100×G, 1 min) and incubated on shaker for 10 mins before taking readings on Pherastar Luminescence microplate reader. […]
In general terms: The HiBiT peptide binds its large partner to form an active luciferase.

The next assay has as its target T2, Androgen receptor F877L (Homo sapiens, UniProt P10275, F877L).
T2 construct: expressed in transfected cells; host or cells: A549, transduced, puromycin selected
T2 sequence (P10275 1-920 F877L): T1 sequence (P10275 1-920 L702H) with H702L, F877L
Briefly: Degradation of overexpressed Androgen Receptor in A549 cells (HiBiT), F877L. As to conditions: A549 cells overexpressing AR F877L, cycloheximide, 24 hours. Format: cell-based. The procedure: as §1, §2

Numbering of substitutions follows the chain as printed.

For `COc1cc(O[C@H]2C(C)(C)[C@H](NC(=O)c3ccc(N4CCC(CN5CCC(n6ncc7c(N8CCC(=O)NC8=O)nccc76)CC5)CC4)c(F)c3)C2(C)C)ccc1C#N` [Example 20, N-((1r,3r)-3-(4-Cyano-3-methoxyphenoxy)-2,2,4,4-tetramethylcyclobutyl)-4-(4-((4-(4-(2,4-dioxotetrahydropyrimidin-1(2H)-yl)-1H-pyrazolo[4,3-c]pyridin-1-yl)piperidin-1-yl)methyl)piperidin-1-yl)-3-fluorobenzamide], the “Summary pXC50” value at Androgen receptor L702H was determined as 9.00; at Androgen receptor F877L, 8.84.

The values above are taken from US12577231B2, “Androgen receptor PROTACS” (GlaxoSmithKline Intellectual Property Development Limited, priority 2023, dated 2026).
